{"source": "patent US20100267561A1", "about": "“HERBICIDAL PYRIDAZINONE DERIVATIVES” (priority 2007, published 2010)", "assay_in_all_cases": "Test D flooded paddy plant response", "format_in_all_cases": "in vivo", "details_in_all_cases": "Flood, scale 0 to 100 (0 no effect, 100 complete control), 21 days", "key": {"[1]": {"tested_on": "barnyardgrass (Echinochloa crus-galli)", "text": "(§1) Three plastic pots (ca. 16-cm diameter) for each application rate were partially filled with sterilized Tama silt loam soil comprising a 35:50:15 ratio of sand, silt and clay and 2.6% organic matter. Separate plantings for each of the three pots were as follows. Seeds from the U.S. of ducksalad (Heteranthera limosa), umbrella sedge (Cyperus difformis) and purple redstem (Ammannia coccinea), were planted into one 16-cm pot for each rate. Seeds from the U.S. of rice flatsedge (Cyperus iria), bearded (Brdd.) sprangletop (Leptochloa fascicularis), one stand of 9 or 10 water-seeded rice seedlings (Oryza sativa cv. ‘Japonica—M202’), and one stand of 6 transplanted rice seedlings (Oryza sativa cv. ‘Japonica—M202’) were planted into one 16-cm pot for each rate. Seeds from the U.S. of barnyardgrass (Echinochloa crus-galli), late watergrass (Echinochloa oryzicola), early watergrass (Echinochloa oryzoides) and junglerice (Echinochloa colona) were planted into one 16-cm pot for each rate. Plantings were sequential so that crop and weed species were at the 2.0 to 2.5-leaf stage at time of treatment.\n(§2) Potted plants were grown in a greenhouse with day/night temperature settings of 30/27° C., and supplemental balanced lighting was provided to maintain a 16-hour photoperiod. Test pots were maintained in the greenhouse until test completion.\n(§3) At time of treatment, test pots were flooded to 3 cm above the soil surface, treated by application of test compounds directly to the paddy water, and then maintained at that water depth for the duration of the test. Effects of treatments on rice and weeds were visually evaluated by comparison to untreated controls after 21 days. Plant response ratings, summarized in Table D, are based on a scale of 0 to 100 where 0 is no effect and 100 is complete control. A dash (-) response means no test result."}, "[2]": {"tested_on": "bearded (Brdd.) sprangletop (Leptochloa fascicularis)", "text": "as §1, §2, §3"}, "[3]": {"tested_on": "ducksalad (Heteranthera limosa)", "text": "as §1, §2, §3"}, "[4]": {"tested_on": "early watergrass (Echinochloa oryzoides)", "text": "as §1, §2, §3"}, "[5]": {"tested_on": "junglerice (Echinochloa colona)", "text": "as §1, §2, §3"}, "[6]": {"tested_on": "late watergrass (Echinochloa oryzicola)", "text": "as §1, §2, §3"}, "[7]": {"tested_on": "purple redstem (Ammannia coccinea)", "text": "as §1, §2, §3"}, "[8]": {"tested_on": "rice flatsedge (Cyperus iria)", "text": "as §1, §2, §3"}, "[9]": {"tested_on": "transplanted rice seedlings (Oryza sativa cv. ‘Japonica—M202’)", "text": "as §1, §2, §3"}, "[10]": {"tested_on": "umbrella sedge (Cyperus difformis)", "text": "as §1, §2, §3"}, "[11]": {"tested_on": "water-seeded rice seedlings (Oryza sativa cv. ‘Japonica—M202’)", "text": "as §1, §2, §3"}}, "data": [{"smiles": "CCc1cc(-c2ccc(Cl)cc2)nn1-c1c(O)cnn(C)c1=O", "note": "[Compound 21]", "values": [{"measurement": "Plant response rating, Barnyardgrass", "setting": "[1]; 16 g ai/ha", "result": 0}, {"measurement": "Plant response rating, Barnyardgrass", "setting": "[1]; 32 g ai/ha", "result": 60}, {"measurement": "Plant response rating, Barnyardgrass", "setting": "[1]; 64 g ai/ha", "result": 100}, {"measurement": "Plant response rating, Barnyardgrass", "setting": "[1]; 125 g ai/ha", "result": 100}, {"measurement": "Plant response rating, Barnyardgrass", "setting": "[1]; 250 g ai/ha", "result": 100}, {"measurement": "Plant response rating, Sprangletop, Brdd.", "setting": "[2]; 16 g ai/ha", "result": 30}, {"measurement": "Plant response rating, Sprangletop, Brdd.", "setting": "[2]; 32 g ai/ha", "result": 30}, {"measurement": "Plant response rating, Sprangletop, Brdd.", "setting": "[2]; 64 g ai/ha", "result": 80}, {"measurement": "Plant response rating, Sprangletop, Brdd.", "setting": "[2]; 125 g ai/ha", "result": 100}, {"measurement": "Plant response rating, Sprangletop, Brdd.", "setting": "[2]; 250 g ai/ha", "result": 100}, {"measurement": "Plant response rating, Ducksalad", "setting": "[3]; 16 g ai/ha", "result": 0}, {"measurement": "Plant response rating, Ducksalad", "setting": "[3]; 32 g ai/ha", "result": 0}, {"measurement": "Plant response rating, Ducksalad", "setting": "[3]; 64 g ai/ha", "result": 0}, {"measurement": "Plant response rating, Ducksalad", "setting": "[3]; 125 g ai/ha", "result": 0}, {"measurement": "Plant response rating, Ducksalad", "setting": "[3]; 250 g ai/ha", "result": 0}, {"measurement": "Plant response rating, Watergrass, Early", "setting": "[4]; 16 g ai/ha", "result": 0}, {"measurement": "Plant response rating, Watergrass, Early", "setting": "[4]; 32 g ai/ha", "result": 40}, {"measurement": "Plant response rating, Watergrass, Early", "setting": "[4]; 64 g ai/ha", "result": 65}, {"measurement": "Plant response rating, Watergrass, Early", "setting": "[4]; 125 g ai/ha", "result": 100}, {"measurement": "Plant response rating, Watergrass, Early", "setting": "[4]; 250 g ai/ha", "result": 100}, {"measurement": "Plant response rating, Junglerice", "setting": "[5]; 16 g ai/ha", "result": 0}, {"measurement": "Plant response rating, Junglerice", "setting": "[5]; 32 g ai/ha", "result": 70}, {"measurement": "Plant response rating, Junglerice", "setting": "[5]; 64 g ai/ha", "result": 100}, {"measurement": "Plant response rating, Junglerice", "setting": "[5]; 125 g ai/ha", "result": 100}, {"measurement": "Plant response rating, Junglerice", "setting": "[5]; 250 g ai/ha", "result": 100}, {"measurement": "Plant response rating, Watergrass, Late", "setting": "[6]; 16 g ai/ha", "result": 0}, {"measurement": "Plant response rating, Watergrass, Late", "setting": "[6]; 32 g ai/ha", "result": 30}, {"measurement": "Plant response rating, Watergrass, Late", "setting": "[6]; 64 g ai/ha", "result": 60}, {"measurement": "Plant response rating, Watergrass, Late", "setting": "[6]; 125 g ai/ha", "result": 100}, {"measurement": "Plant response rating, Watergrass, Late", "setting": "[6]; 250 g ai/ha", "result": 100}, {"measurement": "Plant response rating, Redstem, Purple", "setting": "[7]; 16 g ai/ha", "result": 0}, {"measurement": "Plant response rating, Redstem, Purple", "setting": "[7]; 32 g ai/ha", "result": 0}, {"measurement": "Plant response rating, Redstem, Purple", "setting": "[7]; 64 g ai/ha", "result": 0}, {"measurement": "Plant response rating, Redstem, Purple", "setting": "[7]; 125 g ai/ha", "result": 0}, {"measurement": "Plant response rating, Redstem, Purple", "setting": "[7]; 250 g ai/ha", "result": 0}, {"measurement": "Plant response rating, Flatsedge, Rice", "setting": "[8]; 16 g ai/ha", "result": 0}, {"measurement": "Plant response rating, Flatsedge, Rice", "setting": "[8]; 32 g ai/ha", "result": 0}, {"measurement": "Plant response rating, Flatsedge, Rice", "setting": "[8]; 64 g ai/ha", "result": 70}, {"measurement": "Plant response rating, Flatsedge, Rice", "setting": "[8]; 125 g ai/ha", "result": 70}, {"measurement": "Plant response rating, Flatsedge, Rice", "setting": "[8]; 250 g ai/ha", "result": 70}, {"measurement": "Plant response rating, Rice, Transplanted", "setting": "[9]; 16 g ai/ha", "result": 0}, {"measurement": "Plant response rating, Rice, Transplanted", "setting": "[9]; 32 g ai/ha", "result": 0}, {"measurement": "Plant response rating, Rice, Transplanted", "setting": "[9]; 64 g ai/ha", "result": 0}, {"measurement": "Plant response rating, Rice, Transplanted", "setting": "[9]; 125 g ai/ha", "result": 50}, {"measurement": "Plant response rating, Rice, Transplanted", "setting": "[9]; 250 g ai/ha", "result": 65}, {"measurement": "Plant response rating, Sedge, Umbrella", "setting": "[10]; 16 g ai/ha", "result": 0}, {"measurement": "Plant response rating, Sedge, Umbrella", "setting": "[10]; 32 g ai/ha", "result": 0}, {"measurement": "Plant response rating, Sedge, Umbrella", "setting": "[10]; 64 g ai/ha", "result": 0}, {"measurement": "Plant response rating, Sedge, Umbrella", "setting": "[10]; 125 g ai/ha", "result": 0}, {"measurement": "Plant response rating, Sedge, Umbrella", "setting": "[10]; 250 g ai/ha", "result": 0}, {"measurement": "Plant response rating, Rice, Water Seeded", "setting": "[11]; 16 g ai/ha", "result": 0}, {"measurement": "Plant response rating, Rice, Water Seeded", "setting": "[11]; 32 g ai/ha", "result": 20}, {"measurement": "Plant response rating, Rice, Water Seeded", "setting": "[11]; 64 g ai/ha", "result": 35}, {"measurement": "Plant response rating, Rice, Water Seeded", "setting": "[11]; 125 g ai/ha", "result": 65}, {"measurement": "Plant response rating, Rice, Water Seeded", "setting": "[11]; 250 g ai/ha", "result": 75}]}]}
